Data as given in PubChem BioAssay (NCI).
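Compound exposure: 48 hours, 5 concentrations, 96-well plates. TGI marks complete inhibition of growth.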

Tests used:
Experiment in all cases: NCI anticancer screen, dose series, 48 h
[1] = test system: DMS 114 small cell lung
[2] = test system: LXFL 529 NSCLC
[3] = test system: DLD-1 colon

Measured: TGI

COC(=O)C1=C(C)N2CCOC2CC1c1ccccc1 (stereo not drawn)
> 100 µM: [1] | [2] | [3]
